For one data set, the system named is Enterococcus faecium. The data set is described as follows: MIC micro broth dilution assay. In kind it is cell-based. The settings on record: E. faecium; purified compounds.
The next data set deals with Staphylococcus aureus. Kind of data set: MIC micro broth dilution assay. The format is cell-based. The settings on record: S. aureus; purified compounds. A general note: Dilution methods test growth across graded concentrations, often in twofold steps.
In the next data set the test system is Klebsiella pneumoniae. Kind of data set: MIC micro broth dilution assay. In kind it is cell-based. To be noted: for MIC: K. pneumoniae, purified compounds; for concentration inhibiting growth of 90% of isolates: panel of clinical K. pneumoniae isolates.
The next data set deals with Acinetobacter baumannii. Kind of data set: MIC micro broth dilution assay. In kind it is cell-based. The settings on record: A. baumannii; purified compounds.
The subject of another data set is Pseudomonas aeruginosa. Kind of data set: MIC micro broth dilution assay. To be noted: for MIC: P. aeruginosa, purified compounds; for concentration inhibiting growth of 90% of isolates: panel of clinical P. aeruginosa isolates. The format is cell-based.
Data set [1] concerns E. cloacae. The data set is described as follows: MIC micro broth dilution assay. The format is cell-based. The settings on record: for MIC: E. cloacae, purified compounds; for concentration inhibiting growth of 90% of isolates: panel of clinical E. cloacae isolates.
Data set [2] deals with Staphylococcus aureus biofilm. The data set is described as follows: Minimum biofilm eradication concentration. The format is cell-based. To be noted: S. aureus biofilm; purified compounds.
Data set [3] has as its system Klebsiella pneumoniae biofilm. Kind of data set: Minimum biofilm eradication concentration. To be noted: K. pneumoniae biofilm; purified compounds. The format is cell-based.
Data set [4] relates to Acinetobacter baumannii biofilm. Kind of data set: Minimum biofilm eradication concentration. In kind it is cell-based. To be noted: A. baumannii biofilm; purified compounds.
The test system of data set [5] is Pseudomonas aeruginosa biofilm. The data set is described as follows: Minimum biofilm eradication concentration. In kind it is cell-based. To be noted: P. aeruginosa biofilm; purified compounds.
A further data set has as its system E. cloacae biofilm. Kind of data set: Minimum biofilm eradication concentration. The format is cell-based. The settings on record: purified compounds.
The test system of the next data set is human A549 cells. The data set is described as follows: Cytotoxicity MTT assay. To be noted: for pIC50: read-out: IC50 A549, toxicity towards human A549 cells, MTT, 48 hours. In kind it is cell-based. For orientation: Formazan colour is commonly taken as a measure of viable cells.
A further data set deals with ESKAPE pathogens. Kind of data set: MIC micro broth dilution assay, all six species together. In kind it is cell-based.
A further data set deals with S. aureus. The data set is described as follows: Serial passage resistance assay. In kind it is cell-based, Staphylococcus aureus. To be noted: 8 passages, concentration doubled each day.
Another data set deals with K. pneumoniae. The data set is described as follows: Serial passage resistance assay. In kind it is cell-based, Klebsiella pneumoniae. To be noted: 8 passages.
The next data set deals with A. baumannii. The data set is described as follows: Serial passage resistance assay. In kind it is cell-based, Acinetobacter baumannii. The settings on record: 8 passages.
Data set [6] deals with E. cloacae. In kind it is cell-based. The settings on record: 8 passages.
For another data set, the system named is P. aeruginosa. In kind it is cell-based, Pseudomonas aeruginosa. To be noted: 8 passages.
Data set [7] deals with Staphylococcus aureus (USA300 strain FPR3757). Kind of data set: Murine model of lethal peritonitis. The settings on record: 2xMIC, I.M., 1h post-infection; six mice per group. The format is in vivo.
Data set [8] deals with K. pneumoniae strain 1441. Kind of data set: Growth with efflux inhibitor reserpine. The format is cell-based, Klebsiella pneumoniae. The settings on record: with 100 μM of reserpine.
Data set [9] deals with Enterococcus faecium biofilm. Kind of data set: Minimum biofilm eradication concentration. In kind it is cell-based. The settings on record: E. faecium biofilm; purified compounds.
In another data set the test system is E. cloacae strain 1446. The data set is described as follows: Growth with efflux inhibitor reserpine. The format is cell-based. To be noted: with 100 μM of reserpine.
Data set [10] deals with P. aeruginosa clinical isolates. Kind of data set: Growth with efflux inhibitor reserpine. In kind it is cell-based, Pseudomonas aeruginosa. The settings on record: P. aeruginosa isolate 1420.
For the next data set, the system named is MRSA cells. Kind of data set: Time kill assay. The format is cell-based, Staphylococcus aureus.
The subject of data set [11] is human red blood cells (hRBCs).

pIC50: −log10 of the molar value.

The MIC is the least concentration at which growth counts as inhibited. Read a low MIC as greater potency. The term pIC50 denotes the negative decadic logarithm of the IC50, by convention in mol/L.

In the case of “(S)-1-(4-((S)-3-(4-cyclohexylbutyl)-2-iminoimidazolidin-4-yl)butyl)-4-(cyclohexylmethyl)-3-hexylimidazolidin-2-imine [compound 16]”, the minimal inhibitory concentration (MIC) against Enterococcus faecium, against Staphylococcus aureus, with Klebsiella pneumoniae, in the data set on Acinetobacter baumannii, in the data set on Pseudomonas aeruginosa and against E. cloacae [1] was 1.6 µM each time. The “concentration inhibiting growth of 90% of isolates” value with Klebsiella pneumoniae was found to be 5 µM; in the data set on Pseudomonas aeruginosa, 5 µM; in the data set with E. cloacae [1], 2 µM. Moreover, the MBEC50 in [2] turned out to be 7.6 µM; in data set [3] it was 6.3 µM; in data set [4], 14 µM; in [5], 34 µM; with E. cloacae biofilm, 13 µM. This molecule gave an A549 recovery in the data set with human A549 cells (at concentrations up to 100 μM) greater than 65%. Also, the pIC50 in the data set with human A549 cells is less than 3.65. Moreover, the “concentration with antibacterial activity against all 6 species” value (shortened to “concentration … against all 6 species”) in the data set on ESKAPE pathogens is less than 2 µM. Also, the “fold increase in MIC after serial passage” value (“fold increase in MIC” below) with S. aureus was 16 fold; in the data set on K. pneumoniae, no more than 8 fold; with A. baumannii it was no more than 8 fold; in the data set on E. cloacae [6], no more than 8 fold; in the data set with P. aeruginosa it was 8 fold. Moreover, the “survival of infected mice over 5 days” value in data set [7] is listed as “only a single mouse succumbing to infection after the first day”. Besides, the “effect on growth, compound in combination with reserpine” value in data set [8] is “complete inhibition of growth”.
`CCCC[C@H]1CN(CCCC[C@H]2CNC(=N)N2CCc2cccc(C(F)(F)F)c2)C(=N)N1CCCCC1CCCCC1` [compound 2, (S)-4-butyl-3-(4-cyclohexylbutyl)-1-(4-((S)-2-imino-3-(3-(trifluoromethyl)phenethyl)imidazolidin-4-yl)butyl)imidazolidin-2-imine]: the “concentration inhibiting growth of 90% of isolates” value with Klebsiella pneumoniae, in the data set with Pseudomonas aeruginosa and in the data set with E. cloacae [1] was 5 µM throughout. The “concentration … against all 6 species” value with ESKAPE pathogens is less than 2 µM. The “fold increase in MIC” value with S. aureus is given as “two-fold”. In [7], the “survival of infected mice over 5 days” value is reported as “only a single mouse succumbing to infection after the first day”.
“(S)-4-(cyclohexylmethyl)-3-hexyl-1-(4-((S)-2-imino-3-(3-(trifluoromethyl)phenethyl)imidazolidin-4-yl)butyl)imidazolidin-2-imine [compound 7]”: the MIC in the data set on Enterococcus faecium, against Staphylococcus aureus, against Klebsiella pneumoniae, in the data set on Acinetobacter baumannii, with Pseudomonas aeruginosa and against E. cloacae [1] was 1.5 µM in each case. Besides, the “concentration inhibiting growth of 90% of isolates” value in the data set with Klebsiella pneumoniae came to 5 µM; in the data set on Pseudomonas aeruginosa, 10 µM; in the data set with E. cloacae [1], 2 µM. Besides, the MBEC50 in data set [9] was 26 µM; in data set [2], 4.4 µM; in [3], 4.8 µM; in data set [4], 13 µM; in [5], 46 µM; with E. cloacae biofilm, 15 µM. Besides, the A549 recovery in the data set with human A549 cells (above 45 μM, at concentrations up to 225 μM) was no less than 33%; in the data set on human A549 cells (at 45 μM) it was greater than 60%. Also, in the data set on human A549 cells, the pIC50 is 4.18. In addition, the “concentration … against all 6 species” value with ESKAPE pathogens was less than 2 µM. In addition, the “fold increase in MIC” value was “four-fold” in the data set on S. aureus, no more than 8 fold in the data set with K. pneumoniae, no more than 8 fold with A. baumannii and no more than 8 fold in the data set on E. cloacae [6]. The “survival of infected mice over 5 days” value in data set [7] is 1 mouse lost on each of days 2 and 4. The “effect on growth, compound in combination with reserpine” value in the data set with E. cloacae strain 1446 is on record as “complete inhibition of growth”.
As for “(S)-4-butyl-3-hexyl-1-(4-((S)-2-imino-3-(3-(trifluoromethyl)phenethyl)imidazolidin-4-yl)butyl)imidazolidin-2-imine [compound 1]”, the MIC in the data set with Enterococcus faecium, with Staphylococcus aureus, against Klebsiella pneumoniae, against Acinetobacter baumannii, against Pseudomonas aeruginosa and with E. cloacae [1] was 1.6 µM each time. Further, the “concentration inhibiting growth of 90% of isolates” value with Klebsiella pneumoniae, in the data set with Pseudomonas aeruginosa and with E. cloacae [1] was 10 µM throughout. Moreover, the MBEC50 in data set [9] was 39 µM; in data set [2] it was 14 µM; in data set [3], 7.0 µM; in [4] it was 15 µM; in data set [5], 20 µM; with E. cloacae biofilm it was 13 µM. In addition, the pIC50 in the data set with human A549 cells is 3.79. The “concentration … against all 6 species” value in the data set with ESKAPE pathogens is less than 2 µM. The “fold increase in MIC” value in the data set on S. aureus is “two-fold”. Also, the “survival of infected mice over 5 days” value in data set [7] is “all mice survived”. Besides, the “effect on growth, compound combined with reserpine” value in data set [10] (2 μM compound + 100 μM reserpine) is on record as “strongly inhibited growth”. In addition, in data set [10] (2 μM of compound, no reserpine), the “effect on growth, compound alone” value is recorded as “no effect”.
On to “benzalkonium chloride [reference compound]”, for which the “cells recovered / surviving exposure (optical density relative to start)” value with MRSA cells (MRSA, 2 h, 2.0% SDS, 0.001% benzalkonium chloride, 0.001% benzethonium chloride) was found to be 29%.
On to Triton-X100, for which, in data set [11], the “hemolysis, positive control” value is on record as 100%.
For `COC(=O)[C@H]1[C@H]2C[C@@H]3c4[nH]c5cc(OC)ccc5c4CCN3C[C@H]2C[C@@H](OC(=O)c2cc(OC)c(OC)c(OC)c2)[C@@H]1OC` [reserpine, reference compound], in [10] (100 μM of reserpine), the “effect on growth, reserpine alone” value was “no effect”.
“lysostaphin: a S. aureus specific lytic agent, positive control”: in the data set with MRSA cells (within 10 minutes of exposure, 4 μM lysostaphin), the “lysis of MRSA cells” value is on record as greater than 50%.

The values are drawn from article PMC8982266 (Journal of medicinal chemistry, 2015).
